Measured values reported in patent US20080039528A1, “Zinc finger ejectors and methods of use thereof” (KANSAS STATE UNIVERSITY RESEARCH FOUNDATION, priority 2004, published 2008).
Where two headings read alike, the source gives them in different places.

How the values were obtained:
[1] = test system: P. falciparum W2; assay: Inhibition of the growth of P. falciparum W2 clone ([3H]-hypoxanthine uptake); type: cell-based, Plasmodium falciparum; details: for IC50: read-out: W2, IC50; for IC90: read-out: W2, IC90
Protocol: (§1) Inhibition of the growth of P. falciparum. A reported method for the inhibition of the growth of P. falciparum was followed. The incubation period of the parasites was 66 h and the starting parasitemia was 0.2% with a 1% hematocrit. The medium used was RPMI-1640 culture medium with no folate or p-aminobenzoic acid and 10% normal heat-inactivated human plasma, and P. falciparum D6 and W2 clones were used. D6 is a clone from the Sierra I/UNC isolates and is susceptible to chloroquine and pyrimethamine but has reduced susceptibilities to mefloquine and halofantrine. W2 is a clone of the Indochina I isolate and is resistant to chloroquine and pyrimethamine but susceptible to mefloquine. […] The diluted compounds were transferred ([…]) to test plates, 200 µL of parasitized erythrocytes (0.2% parasitemia and 1% hematocrit) was added, and was incubated at 37° C. in a controlled environment of 5% CO2, 5% O2, and 90% N2. After 42 h, 25 µL of [^3H]-hypoxanthine was added and the plates were incubated for an additional 24 h. The plates were then frozen at −70° C. to lyse the red cells and later thawed and harvested onto glass fiber filter mats by using a 96-well cell harvester. The filter mats were counted in a scintillation counter and the data were downloaded with the custom, automated analysis software developed by WRAIR. For each compound, the concentration-response profile was determined and 50% inhibitory concentrations (IC50) were determined by using a nonlinear, logistic dose-response analysis program.

[2] = test system: P. falciparum D6; assay: Inhibition of the growth of P. falciparum D6 clone ([3H]-hypoxanthine uptake); type: cell-based, Plasmodium falciparum; details: for inhibitory activities (in words): P. falciparum D6 and W2 and L. donovani parasites, summary statement; for IC50: read-out: D6, IC50; for IC90: read-out: D6, IC90
Protocol: as §1

[3] = test system: L. donovani axenic amastigote-like parasites; assay: Inhibition of the growth of L. donovani axenic amastigotes (3-day CellTiter 96 assay); type: cell-based, Leishmania donovani; details: 3-day assay
Protocol: Inhibition of the growth of L. donovani parasites. A reported method for the inhibition of the growth of L. donovani parasites was followed. L. donovani axenic amastigotes were maintained in modified RPMI medium as previously described. Inhibition of growth by the compounds was measured in a 3-day assay using the tetrazolium dye-based CellTiter 96 Aqueous Non-Radioactive Cell Proliferation Assay Kit (Promega, Madison, Wis., USA) as previously described. The known anti-leishmaniasis drug, pentamidine, was used as a control.

[4] = Solubility (qualitative); type: physicochemical
[5] = Plasmodium falciparum, W2, 66 h, P. falciparum W2 intraerythrocytic forms, 66 h incubation
[6] = Plasmodium falciparum, D6, 66 h, P. falciparum D6 intraerythrocytic forms, 66 h incubation
[7] = P. falciparum W2 intraerythrocytic forms, 66 h incubation
[8] = P. falciparum D6 intraerythrocytic forms, 66 h incubation
[9] = Plasmodium falciparum, P. falciparum W2 intraerythrocytic forms, 66 h incubation
[10] = Plasmodium falciparum, W2, 66 h
[11] = Plasmodium falciparum, D6, 66 h

Row | IC50 [1, 5] [nM] | IC50 [2, 6] [nM] | IC50 [1, 7] [nM] | IC50 [2, 8] [nM] | SMILES | inhibitory activities (in words) [2] | further results
1 | > 60000 | > 60000 |  |  | O=C(O)c1ccc(OCCCCCOc2ccc(C(=O)O)cc2)cc1 [Biscarboxylic acid 6, 1,5-Bis-[4-(hydroxycarbonyl)phenoxy]pentane] | do not show inhibitory activities | 
2 | > 60000 | > 60000 |  |  | O=C(O)c1ccc(OC/C=C/COc2ccc(C(=O)O)cc2)cc1 [Biscarboxylic acid 8, trans-1,4-Bis-[4-(hydroxycarbonyl)phenoxy]-2-butene] | do not show inhibitory activities | 
3 |  |  | > 38000 | > 38000 | O=C(O)c1ccc(OCCOCCOc2ccc(C(=O)O)cc2)cc1 [Biscarboxylic acid 10, 2,2′-Bis-[(4-hydroxycarbonyl)phenoxy]ethyl ether] | do not show inhibitory activities | IC50 [3]: > 100000 nM
4 | > 60000 | > 60000 |  |  | COC(=O)c1ccc(OCCCCCOc2ccc(C(=O)OC)cc2)cc1 [Bisester 5, 1,5-Bis-(4-methoxycarbonylphenoxy)pentane] | do not show inhibitory activities | 
5 | > 60000 | > 60000 |  |  | COC(=O)c1ccc(OC/C=C/COc2ccc(C(=O)OC)cc2)cc1 [Bisester 7, trans-1,4-Bis-(4-methoxycarbonylphenoxy)-2-butene] | do not show inhibitory activities | 
6 |  |  | 3200 | 2200 | O=C(NO)c1ccc(OCCCCCOc2ccc(C(=O)NO)cc2)cc1 [Bishydroxamic acid 1, 1,5-Bis-[4-(hydroxyaminocarbonyl)phenoxy]pentane] |  | IC90 [2, 8]: 6200 nM
7 | 1050 | 690 |  |  | O=C(NO)c1ccc(OC/C=C/COc2ccc(C(=O)NO)cc2)cc1 [Bishydroxamic acid 2, trans-1,4-Bis[4-(hydroxyaminocarbonyl)phenoxy]-2-butene] |  | IC90 [1, 9]: 2570 nM; IC90 [2, 6]: 1800 nM
8 |  |  | 350 | 240 | O=C(NO)c1ccc(OCCOCCOc2ccc(C(=O)NO)cc2)cc1 [Bishydroxamic acid 3, 2,2′-Bis-[(4-hydroxyaminocarbonyl)phenoxy]ethyl ether] |  | solubility in DMSO ([4]; DMSO): soluble in DMSO; solubility in water [4]: only slightly soluble in water; IC90 [1, 7]: 600 nM; IC90 [2, 8]: 470 nM; IC50 [3]: 18500 ± 6000 nM
9 |  |  | 1090 | 1000 | O=C([N-]O)c1ccc(OCCCCCOc2ccc(C(=O)[N-]O)cc2)cc1.[Na+].[Na+] [Bishydroxamic acid sodium salt 11, 1,5-Bis-[4-(hydroxy-sodio-aminocarbonyl)phenoxy]pentane] |  | solubility in water [4]: soluble in water; IC90 [2, 8]: 2000 nM
10 |  |  | 360 | 260 | O=C([N-]O)c1ccc(OCCOCCOc2ccc(C(=O)[N-]O)cc2)cc1.[Na+].[Na+] [Bishydroxamic acid sodium salt 12, 2,2′-Bis-[(4-hydroxy-sodio-aminocarbonyl)phenoxy]ethyl ether] |  | solubility in water [4]: soluble in water; IC90 [1, 7]: 600 nM; IC90 [2, 8]: 520 nM; IC50 [3]: 37400 ± 14000 nM
11 |  |  |  |  | CCN(CC)CCCC(C)Nc1ccnc2cc(Cl)ccc12 (centres unmarked) [Chloroquine, reference compound] |  | IC50 [1, 10]: 450 nM; IC90 [1, 10]: 650 nM; IC50 [2, 11]: 13 nM; IC90 [2, 11]: 14 nM
12 |  | 13 |  |  | OC(c1cc(C(F)(F)F)nc2c(C(F)(F)F)cccc12)C1CCCCN1 (centres unmarked) [Mefloquine, reference compound] |  | IC50 ([1]; Plasmodium falciparum, W2, P. falciparum W2, value in nM): 8 nM; IC90 [1, 9]: 15 nM; IC90 [2, 6]: 240 nM
13 |  |  |  |  | N=C(N)c1ccc(OCCCCCOc2ccc(C(=N)N)cc2)cc1 [Pentamidine, reference compound] |  | IC50 ([3]; Leishmania donovani, 72 h): 1190 ± 120 nM

Row | SMILES | IC50 [1, 5] [nM] | IC50 [2, 6] [nM] | IC50 [1, 7] [nM] | IC50 [2, 8] [nM] | inhibitory activities (in words) [2] | further results
14 | COC(=O)c1ccc(OCCOCCOc2ccc(C(=O)OC)cc2)cc1 [Bisester 9, 2,2′-Bis-(4-methoxycarbonylphenoxy)ethyl ether] |  |  | > 60000 | > 60000 | do not show inhibitory activities | IC50 [3]: > 100000 nM
